# Reference: article PMC10674535, “Development and Evaluation of a Self-Nanoemulsifying Drug Delivery System for Sinapic Acid with Improved Antiviral Efficacy against SARS-CoV-2” (Pharmaceutics, 2023)
# Where two headings read alike, the source gives them in different places.
# Assays:
# [1] = molecular target: T1, 3CL Protease, tagged (SARS-CoV-2) (Mpro) (Severe acute respiratory syndrome coronavirus 2, UniProt P0DTD1); assay: Mpro enzyme assay (3CL Protease FRET assay kit); assay type: biochemical; conditions: excitation 360 nm, emission 460 nm, read-out: IC50, in vitro Mpro inhibitory activity
# T1 construct: 3CL Protease, tagged (SARS-CoV-2) Assay Kit; unspecified tag (printed only as 'tagged'); purchased BPS Bioscience, Inc. 79955-1
# From the text: The in vitro FRET assay was monitored at an emission wavelength of 460 nm with an excitation at 360 nm using a Flx800 fluorescence spectrophotometer (BioTek Instruments, Winooski, VT, USA).
# in vitro = conditions: African green monkey
# [2] = tested on: SARS-CoV-2 (hCoV-19/Egypt/NRC-3/2020 isolate); assay: microbe, parasite or virus in culture; assay type: cell-based; conditions: Severe acute respiratory syndrome coronavirus 2, Vero C1008, 48 h, read-out: IC50, in vitro antiviral activity against SARS-CoV-2
# [3] = Equilibrium (saturated) solubility of SA in oils, surfactants and cosurfactants (isothermal method); assay type: physicochemical; conditions: room temperature; for solubility at 3 days: read-out: Saturated solubility of sinapic acid; for Saturated solubility of sinapic acid: 3 days, listed as SA
# From the text: The equilibrium solubility of SA was studied in various oils, surfactants, and cosurfactants. Oils of different saturation degrees (medium- or long-chain triglycerides) were utilized to create an SNE to test their solubilization and nano-emulsification ability. The oil with the highest ability to solubilize SA was chosen due to its significant impact on drug solubilization ability and absorption. The tested oils included Labrafil, Capryol-90, Labrafac, olive oil, anise oil, almond oil, soybean oil, and corn oil. The screened surfactants were hydrophilic non-ionic surfactants (Cremophor El, Tween 20, and Tween 80); they have high HLB values and low oral toxicity. Labrasol, Transcutol, PEG 400, and propylene glycol were the screened cosurfactants. An isothermal method previously reported in the literature was utilized for the solubility determination. In brief, 300 mg of SA was added to 1 mL of each component in screw-capped glass vials and mixed using a vortex mixer. The mixtures were then transferred to a thermodynamic water bath shaker (JULABO™, Julabo Labortechnik GMBH, Seelbach, Germany) for continuous shaking at a speed of 100 rpm at room temperature for three days, followed by centrifugation at 4000 rpm for 25 min. SA concentration was measured spectrophotometrically at 322 nm after the supernatant was diluted with methanol using a magnetic stirrer at 500 rpm for 2 min at room temperature. The results of this study provide important insights into the solubility of SA in various oils, surfactants, and cosurfactants, which is crucial for the formulation of SA in a self-nanoemulsifying dosage form.
structure (smiles),measurement,setting,value
COc1cc(/C=C/C(=O)O)cc(OC)c1O [Sinapic acid],IC50,[1],6.74 ± 0.95 µM
same,CC50,in vitro,196 ± 15.1 µg/mL
same,IC50,[2],2.53 ± 0.065 µg/mL
same,solubility at 3 days,"[3]; Capryol 90 (oil), oil or lipid, thermodynamic from solid, in Capryol 90 (oil)",22.5 mg/mL
same,solubility at 3 days,"[3]; Cremophore El (surfactant), thermodynamic from solid, in Cremophore El (surfactant)",138 mg/mL
same,solubility at 3 days,"[3]; Labrafac (oil), oil or lipid, thermodynamic from solid, in Labrafac (oil)",14.3 mg/mL
same,solubility at 3 days,"[3]; Labrafil (oil), in Labrafil (oil)",30 mg/mL
same,solubility at 3 days,"[3]; Labrafil (oil), oil or lipid, thermodynamic from solid, in Labrafil (oil)",30 mg/mL
same,solubility at 3 days,"[3]; Labrasol, thermodynamic from solid, in Labrasol",60.4 mg/mL
same,solubility at 3 days,"[3]; PEG 400 (co-surfactant), organic solvent or mixture, thermodynamic from solid, in PEG 400 (co-surfactant)",102 mg/mL
same,solubility at 3 days,"[3]; Transcutol (co-surfactant), organic solvent or mixture, thermodynamic from solid, in Transcutol (co-surfactant)",193 mg/mL
same,solubility at 3 days,"[3]; Tween 20 (surfactant), thermodynamic from solid, in Tween 20 (surfactant)",123 mg/mL
same,solubility at 3 days,"[3]; Tween 80 (surfactant), thermodynamic from solid, in Tween 80 (surfactant)",78.8 mg/mL
same,solubility at 3 days,"[3]; almond oil, oil or lipid, thermodynamic from solid, in almond oil",1.71 mg/mL
same,solubility at 3 days,"[3]; anise oil, oil or lipid, thermodynamic from solid, in anise oil",5.02 mg/mL
same,solubility at 3 days,"[3]; corn oil, oil or lipid, thermodynamic from solid, in corn oil",0.81 mg/mL
same,Saturated solubility of sinapic acid,[3]; in Cremophore El (surfactant),138 mg/mL
same,Saturated solubility of sinapic acid,[3]; in Labrasol,60 mg/mL
same,Saturated solubility of sinapic acid,[3]; in PEG 400 (co-surfactant),102 mg/mL
same,Saturated solubility of sinapic acid,[3]; in Transcutol (co-surfactant),192 mg/mL
same,Saturated solubility of sinapic acid,[3]; in Tween 80 (surfactant),78 mg/mL
same,Saturated solubility of sinapic acid,[3]; in propylene glycol (co-surfactant),58 mg/mL
same,solubility at 3 days,"[3]; olive oil, oil or lipid, thermodynamic from solid, in olive oil",7.11 mg/mL
same,solubility at 3 days,"[3]; propylene glycol (co-surfactant), organic solvent or mixture, thermodynamic from solid, in propylene glycol (co-surfactant)",58.4 mg/mL
same,solubility at 3 days,"[3]; soybean oil, oil or lipid, thermodynamic from solid, in soybean oil",1.25 mg/mL
"CCC(CC)COC(=O)[C@H](C)N[P@](=O)(OC[C@H]1O[C@@](C#N)(c2ccc3c(N)ncnn23)[C@H](O)[C@@H]1O)Oc1ccccc1 [remdesivir, reference compound]",IC50,"[2]; Vero E6 cells, MOI 0.5, viral RNA by real-time PCR after 2 days, n = 3",0.036 ± 0.002 µg/mL
